# Read-outs that look alike come from different tables or passages of the source. Bridge positions count the residues as written; N and C are the ends. Ends that are not written are not given here.
# Key:
# Listeria monocytogenes = assay type: cell-based; conditions: radial diffusion, MHB pH 7.4/1% agarose/0.1% glucose, overnight, 37°C
# Method: (§1) Experiments were carried out with a collection of 25 Listeria monocytogenes strains (Table 1) and 16 Staphylococcus aureus strains (Table 2) representing different lineages and serotypes (L. monocytogenes), spa types (S. aureus), and origins (food processing environment, food products, and human clinical isolates). Six L. monocytogenes strains were mutants of the EGD strain and were mutated in genes known to be involved in stress tolerance. The S. aureus collection comprised two deletion mutants, strains Sa113/ΔmprF [8] and Sa113/ΔdltA [7], known to be more sensitive to host defense peptides. Two of the S. aureus strains could not immediately be assigned to an existing spa type and we are in the process of acquiring the additional information that is needed to assign a new spa type to them. The strains were obtained from The National Institute of Aquatic Resources and The National Food Institute, Technical University of Denmark, Faculty of Life Sciences, University of Copenhagen, Denmark, Statens Serum Institut, Denmark, University of Würzburg, Germany and Campden Food and Drink Association, United Kingdom. Stock cultures were stored at -80°C in 4% (w/V) glycerol, 0.5% (w/V) glucose, and 2.0% (w/V) skimmed milk powder. The bacteria were grown in Brain Heart Infusion (BHI) broth (Oxoid, CM0225), Tryptone Soy Broth (TSB) (Oxoid, CM129), and cation-adjusted Mueller-Hinton II Broth (MHB) (Becton Dickinson, 212322) adjusted to pH 7.4. To avoid unspecific binding of host defense peptides to plastic ware and agar, all MIC determinations were carried out using polypropylene plastic ware and radial diffusion assays were carried out in MHB supplemented with 1% agarose (Invitrogen, 15510-027) as gelling agent.
# (§2) Protamine was purchased from Sigma (P4020-5G). Plectasin, novicidin, and novispirin G10 were supplied by Novozymes A/S. Recombinant HBD-3 was purchased from PeproTech (300-52).
# (§3) Each strain was tested in two independent trials.
# Staphylococcus aureus = assay type: cell-based; conditions: radial diffusion, MHB pH 7.4/1% agarose/0.1% glucose, overnight, 37°C
# Method: as §1, §2, §3
# [1] = system: L. monocytogenes and S. aureus; assay: Minimum bactericidal concentration (MBC), plating from MIC wells; assay type: cell-based, Listeria monocytogenes, Staphylococcus aureus; conditions: 99.9% reduction of initial inoculum; 10 μl from wells with no visible growth plated on BHI agar
# Method: The strain collection was tested for sensitivity to protamine, plectasin, novicidin, and novispirin G10 by determining their minimal inhibitory concentration (MIC) using a microbroth dilution method. Colonies from a BHI agar plate incubated overnight were suspended in MHB pH 7.4 to a turbidity of 0.11–0.12 at 546 nm (approx. 1.0 × 10^8 CFU/ml) and diluted in MHB to a concentration of 5.0 × 10^5 CFU/ml. 90 μl of bacterial suspension was incubated with 10 μl of peptide solution in polypropylene 96-well plates (Nunc, 442587) for 18–24 h at 37°C. The peptide solutions were made fresh on the day of assay and diluted two-fold. The range of concentrations assayed were 0.031–32 μg/ml for novicidin, 0.125–128 μg/ml for protamine and novispirin G10, and 0.25–256 μg/ml for plectasin. MIC was the lowest peptide concentration at which visual growth was inhibited. The minimum bactericidal concentration (MBC) values were determined by plating l0 μl samples from wells with no visible growth onto BHI agar plates. MBC was the lowest concentration of each peptide of which 99.9% reduction of the initial inoculum was observed.
molecule,measurement,setting,value
"GIINTLQKYYCRVRGGRCAVLSCLPKEEQIGKCSTRGRKCCRRKK (disulfide 11-40, 18-33, 23-41 (inferred)) [HBD-3, human β-defensin 3]",MIC (MEC),"Listeria monocytogenes; strain 4446, first of two values (two independent trials)",16/16 μg/ml
same,MIC (MEC),"Listeria monocytogenes; strain 4446, second of two values (two independent trials)",16/16 μg/ml
same,MIC (MEC),"Listeria monocytogenes; strain 7418, first of two values (two independent trials)",4 µg/mL
same,MIC (MEC),"Listeria monocytogenes; strain 7418, second of two values (two independent trials)",8 µg/mL
same,MIC (MEC),"Listeria monocytogenes; strain EGD, first of two values (two independent trials)",16/16 μg/ml
same,MIC (MEC),"Listeria monocytogenes; strain EGD, second of two values (two independent trials)",16/16 μg/ml
same,MIC (MEC),"Listeria monocytogenes; strain La22, first of two values (two independent trials)",16/16 μg/ml
same,MIC (MEC),"Listeria monocytogenes; strain La22, second of two values (two independent trials)",16/16 μg/ml
same,MIC (MEC),"Listeria monocytogenes; strain La111, first of two values (two independent trials)",8 µg/mL
same,MIC (MEC),"Listeria monocytogenes; strain La111, second of two values (two independent trials)",16 µg/mL
same,MIC (MEC),"Listeria monocytogenes; strain N53-1, first of two values (two independent trials)",16 µg/mL
same,MIC (MEC),"Listeria monocytogenes; strain N53-1, second of two values (two independent trials)",32 µg/mL
same,MIC (MEC),"Listeria monocytogenes; strain Scott A, first of two values (two independent trials)",8/8 μg/ml
same,MIC (MEC),"Listeria monocytogenes; strain Scott A, second of two values (two independent trials)",8/8 μg/ml
same,MIC (MEC),"Staphylococcus aureus; strain 796, first of two values (two independent trials)",64/64 μg/ml
same,MIC (MEC),"Staphylococcus aureus; strain 796, second of two values (two independent trials)",64/64 μg/ml
same,MIC (MEC),"Staphylococcus aureus; strain 2148-jvi, first of two values (two independent trials)",32/32 μg/ml
same,MIC (MEC),"Staphylococcus aureus; strain 2148-jvi, second of two values (two independent trials)",32/32 μg/ml
same,MIC (MEC),"Staphylococcus aureus; strain 8325-4, first of two values (two independent trials)",32/32 μg/ml
same,MIC (MEC),"Staphylococcus aureus; strain 8325-4, second of two values (two independent trials)",32/32 μg/ml
same,MIC (MEC),"Staphylococcus aureus; strain 14943, first of two values (two independent trials)",32 µg/mL
same,MIC (MEC),"Staphylococcus aureus; strain 14943, second of two values (two independent trials)",64 µg/mL
same,MIC (MEC),"Staphylococcus aureus; strain B31369, first of two values (two independent trials)",64/64 μg/ml
same,MIC (MEC),"Staphylococcus aureus; strain B31369, second of two values (two independent trials)",64/64 μg/ml
same,MIC (MEC),"Staphylococcus aureus; strain K3-B2, first of two values (two independent trials)",32 µg/mL
same,MIC (MEC),"Staphylococcus aureus; strain K3-B2, second of two values (two independent trials)",64 µg/mL
same,MIC (MEC),"Staphylococcus aureus; strain KES 626, first of two values (two independent trials)",32 µg/mL
same,MIC (MEC),"Staphylococcus aureus; strain KES 626, second of two values (two independent trials)",64 µg/mL
CC[C@H](C)[C@@H]1NC(=O)[C@H](CO)NC(=O)[C@H](CCCCN)NC(=O)[C@@H]2CSSC[C@@H](C(=O)N[C@@H](Cc3ccc(O)cc3)C(=O)O)NC(=O)[C@H](CCCCN)NC(=O)[C@@H]3CSSC[C@H](NC(=O)[C@H](CCC(N)=O)NC(=O)[C@H](CCSC)NC(=O)[C@H](CC(=O)O)NC(=O)[C@H](CC(=O)O)NC(=O)[C@H](CCC(=O)O)NC(=O)[C@H](CC(=O)O)NC(=O)[C@H](Cc4c[nH]c5ccccc45)NC(=O)[C@@H]4CCCN4C(=O)CNC(=O)[C@H](CC(N)=O)NC(=O)[C@@H](NC(=O)CNC(=O)[C@H](Cc4ccccc4)NC(=O)CN)CSSC[C@H](NC(=O)[C@H](Cc4ccc(O)cc4)NC(=O)CNC(=O)CNC(=O)[C@H](CCCCN)NC(=O)[C@H](Cc4ccc(O)cc4)NC(=O)CNC(=O)[C@H](CCCCN)NC1=O)C(=O)N[C@@H](C)C(=O)N[C@@H](CCCCN)C(=O)NCC(=O)NCC(=O)N[C@@H](Cc1ccccc1)C(=O)N[C@@H](C(C)C)C(=O)N3)C(=O)N[C@@H](Cc1c[nH]cn1)C(=O)N[C@@H](CC(N)=O)C(=O)N[C@@H](Cc1c[nH]cn1)C(=O)N2 [plectasin],minimum bactericidal concentrations (MBC),[1],identical to the MICs
